Test results published in patent EP4699622A1, “COMBINATION OF ANTIBODY-DRUG CONJUGATE AND OTHER MEDICINE” (Daiichi Sankyo Company, Limited, priority 2023, dated 2024).
Read-outs that look alike come from different tables or passages of the source.

Columns and labels:
[1] = test system: CD37-positive human chronic lymphocytic leukemia cell line JVM-13; experiment: Antitumor effect - (4): JVM-13 subcutaneous xenograft; settings: JVM-13 xenograft; for TGI (%): Day 35, grouping Day 14, ADC (1) 0.3 mg/kg i.v. once, rituximab 10 mg/kg i.v. once, bendamustine 12.5 mg/kg i.p. day of grouping and next day, venetoclax 100 mg/kg oral every day, ibrutinib 200 mg/kg oral every day; for CR (%) on final day of observation / Change from baseline (%): ADC (1) 0.3 mg/kg i.v., rituximab 10 mg/kg i.v., bendamustine 12.5 mg/kg i.p. x2, venetoclax 100 mg/kg oral daily, ibrutinib 200 mg/kg oral daily; for Change from baseline (%): tumor volume on Day 35 vs Day 14 baseline
[2] = test system: CD37-positive human chronic lymphocytic leukemia cell line JVM-13; experiment: Cell growth inhibition by combination with BTK inhibitors (Celltiter-Glo 2.0); assay type: cell-based; settings: JVM13, 144 h, read-out: D2 (50% cell growth inhibition concentration, BTK inhibitor alone)
Description: (§1) During the culture period, the cells were cultured under conditions of 37°C and 5% CO2 in all the cases. The cells thus cultured for 6 days were reacted using Celltiter-Glo 2.0 Cell Viability Assay (Promega Corp,) in accordance with the attached manual, followed by the measurement of the amount of luminescence from each well using a plate reader (Envision 2105 XCite multimode plate reader, PerkinElmer, Inc.). […] Cell growth inhibition rate (%) = (T/C) × 100 [formula]
(§2) From the calculated 50% cell growth inhibition concentrations (anti-CD37 antibody-drug conjugate (1) alone: D1, each BTK inhibitor alone: D2, anti-CD37 antibody-drug conjugate (1) in the combination: d1, each BTK inhibitor drug in the combination: d2), a combination index (CI) was calculated according to the following formula, and assessed as a synergistic effect with CI < 1, an additive effect with CI = 1, and an antagonizing effect with CI > 1 (see Adv. Enzyme Regul. 1984, P. 2227-55) . CI = (d1/D1) + (d2/D2) [formula]

[3] = test system: CD37-positive human chronic lymphocytic leukemia cell line JVM-2; experiment: as above; assay type: cell-based; settings: read-out: D2 (50% cell growth inhibition concentration, BTK inhibitor alone)
Description: as §1, §2

[4] = test system: CD37-positive human chronic lymphocytic leukemia cell line JVM-3; experiment: as above; assay type: cell-based; settings: read-out: D2 (50% cell growth inhibition concentration, BTK inhibitor alone)
Description: as §1, §2

IC50 ([2]; JVM-13, 6 days culture) [µM] | IC50 ([3]; 144 h, JVM-2, 6 days culture) [µM] | IC50 ([4]; 144 h, JVM-3, 6 days culture) [µM] | Structure (SMILES) | TGI (%) [1] [%] | CR (%) on final day of observation [1] [%] | Change from baseline (%) [1] [%] | IC50 [2] [µM] | IC50 ([3]; JVM-2, 144 h) [µM] | IC50 ([4]; JVM-3, 144 h) [µM]
– | – | – | C=CC(=O)N1CCC[C@@H](n2nc(-c3ccc(Oc4ccccc4)cc3)c3c(N)ncnc32)C1 [Ibrutinib, ibrutinib] | -12 | 0 | 776.7 | 0.58 | 1.19 | 0.27
7.15 | 25.8 | 16.6 | CC#CC(=O)N1CCC[C@H]1c1nc(-c2ccc(C(=O)Nc3ccccn3)cc2)c2c(N)nccn12 [Acalabrutinib, acalabrutinib] | – | – | – | – | – | –
– | – | – | CC1(C)CCC(CN2CCN(c3ccc(C(=O)NS(=O)(=O)c4ccc(NCC5CCOCC5)c([N+](=O)[O-])c4)c(Oc4cnc5[nH]ccc5c4)c3)CC2)=C(c2ccc(Cl)cc2)C1 [Venetoclax, venetoclax] | 25 | 0 | 490.9 | – | – | –
2.83 | 6.86 | 17.9 | C=CC(=O)N1CCC([C@@H]2CCNc3c(C(N)=O)c(-c4ccc(Oc5ccccc5)cc4)nn32)CC1 [Zanubrutinib, zanubrutinib] | – | – | – | – | – | –
